From PMC2819846 (Mutation research, 2008)

Assays:
Assay type in all cases: cell-based
Salmonella TA104 = experiment: Salmonella plate-incorporation mutagenicity assay, strain TA104, with S9 mix; conditions: for Mutagenic potency, Revertants/µg ± S.E., TA104: plate-incorporation, +S9
Salmonella TA100 = experiment: Salmonella plate-incorporation mutagenicity assay, strain TA100; conditions: for Mutagenic potency, Revertants/µg ± S.E., TA100 / Mutagenicity call TA100: plate-incorporation, +S9
Salmonella TA98 = experiment: Salmonella plate-incorporation mutagenicity assay, strain TA98, with S9 mix
[1] = TA100 +S9, Test 1, 2 µg/plate, zero-dose 99/110/110
[2] = TA100 +S9, Test 1, 5 µg/plate, zero-dose 99/110/110
[3] = TA100 +S9, Test 1, 10 µg/plate, zero-dose 99/110/110
[4] = TA100 +S9, Test 1, 20 µg/plate, zero-dose 99/110/110
[5] = TA100 +S9, Test 1, 40 µg/plate, zero-dose 99/110/110
[6] = TA100 +S9, Test 1, 80 µg/plate, zero-dose 99/110/110
[7] = TA98 +S9, Test 1, 2 µg/plate, zero-dose 33/40/39
[8] = TA98 +S9, Test 1, 5 µg/plate, zero-dose 33/40/39
[9] = TA98 +S9, Test 1, 10 µg/plate, zero-dose 33/40/39
[10] = TA98 +S9, Test 1, 20 µg/plate, zero-dose 33/40/39
[11] = TA98 +S9, Test 1, 40 µg/plate, zero-dose 33/40/39
[12] = TA98 +S9, Test 1, 80 µg/plate, zero-dose 33/40/39
[13] = TA98 +S9, Test 2, 20 µg/plate, zero-dose 43/41/30
[14] = TA98 +S9, Test 2, 40 µg/plate, zero-dose 43/41/30
[15] = TA98 +S9, Test 2, 80 µg/plate, zero-dose 43/41/30
[16] = TA98 +S9, Test 3, 20 µg/plate, zero-dose 49/50/50
[17] = TA98 +S9, Test 3, 40 µg/plate, zero-dose 49/50/50
[18] = TA104 +S9, Test 2, 2 µg/plate, zero-dose 276/260/270
[19] = TA104 +S9, Test 3, 2 µg/plate, zero-dose 402/395/336

O[C@@H]1c2ccccc2-c2c(ccc3ccccc23)[C@H]1O (racemic) [B[c]P 5,6-diol, (± )-trans-5,6-Dihydrobenzo[c]phenanthrene 5,6-diol]
Rev/plate (Salmonella TA104; TA104 +S9, Test 2, 40 µg/plate, zero-dose 276/260/270): 457 rev/plate
Rev/plate (Salmonella TA104; TA104 +S9, Test 2, 80 µg/plate, zero-dose 276/260/270): 506 rev/plate
Rev/plate (Salmonella TA104; TA104 +S9, Test 2, 120 µg/plate, zero-dose 276/260/270): 507 rev/plate
Mutagenic potency, Revertants/µg ± S.E., TA104 (Salmonella TA104): 2.5 ± 1.2 rev/µg
Rev/plate (Salmonella TA100; [1]): 132 rev/plate
Rev/plate (Salmonella TA100; [2]): 151 rev/plate
Rev/plate (Salmonella TA100; [3]): 147 rev/plate
Rev/plate (Salmonella TA100; [4]): 192 rev/plate
Rev/plate (Salmonella TA100; [5]): 193 rev/plate
Rev/plate (Salmonella TA100; [6]): 263 rev/plate
Rev/plate (Salmonella TA100; TA100 +S9, Test 2, 40 µg/plate, zero-dose 84/78/80): 161/116
Rev/plate (Salmonella TA100; TA100 +S9, Test 2, 80 µg/plate, zero-dose 84/78/80): 129/144
Rev/plate (Salmonella TA100; TA100 +S9, Test 2, 120 µg/plate, zero-dose 84/78/80): 127/129
Rev/plate (Salmonella TA100; TA100 +S9, Test 3, 40 µg/plate, zero-dose 127/118/125): 210/248
Rev/plate (Salmonella TA100; TA100 +S9, Test 3, 80 µg/plate, zero-dose 127/118/125): 306/328
Rev/plate (Salmonella TA100; TA100 +S9, Test 3, 120 µg/plate, zero-dose 127/118/125): 375/304
Mutagenic potency, Revertants/µg ± S.E., TA100 (Salmonella TA100): 1.6 ± 0.7 rev/µg
Mutagenicity call TA100 (Salmonella TA100): (+) (Called mutagenic (+) based on showing reproducible, dose-related increases in rev/plate that reached or exceeded 2-fold relative to zero-dose controls)
Rev/plate (Salmonella TA98; [7]): 31 rev/plate
Rev/plate (Salmonella TA98; [8]): 41 rev/plate
Rev/plate (Salmonella TA98; [9]): 41 rev/plate
Rev/plate (Salmonella TA98; [10]): 29 rev/plate
Rev/plate (Salmonella TA98; [11]): 34 rev/plate
Rev/plate (Salmonella TA98; [12]): 40 rev/plate
Rev/plate (Salmonella TA98; TA98 +S9, Test 2, 10 µg/plate, zero-dose 43/41/30): 43/42
Rev/plate (Salmonella TA98; [13]): 27/49
Rev/plate (Salmonella TA98; [14]): 46/33
Rev/plate (Salmonella TA98; [15]): 52/35
Rev/plate (Salmonella TA98; TA98 +S9, Test 3, 10 µg/plate, zero-dose 49/50/50): 51/47
Rev/plate (Salmonella TA98; [16]): 46/60
Rev/plate (Salmonella TA98; [17]): 51/47
Rev/plate (Salmonella TA98; TA98 +S9, Test 3, 100 µg/plate, zero-dose 49/50/50): 32/47
Mutagenic potency, Revertants/µg ± S.E., TA98 (Salmonella TA98; plate-incorporation, +S9): −0.1 ± 0.1 rev/µg

O[C@@H]1c2ccccc2-c2c(ccc3sccc23)[C@H]1O (racemic) [P[3,4-b]T 6,7-diol, (± )-trans-6,7-Dihydrophenanthro[3,4-b]thiophene 6,7-diol]
Rev/plate (Salmonella TA104; [18]): 365/338
Rev/plate (Salmonella TA104; TA104 +S9, Test 2, 5 µg/plate, zero-dose 276/260/270): 407/431
Rev/plate (Salmonella TA104; TA104 +S9, Test 2, 10 µg/plate, zero-dose 276/260/270): 475/484
Rev/plate (Salmonella TA104; TA104 +S9, Test 2, 20 µg/plate, zero-dose 276/260/270): 538/576
Rev/plate (Salmonella TA104; [19]): 475/419
Rev/plate (Salmonella TA104; TA104 +S9, Test 3, 5 µg/plate, zero-dose 402/395/336): 498/541
Rev/plate (Salmonella TA104; TA104 +S9, Test 3, 10 µg/plate, zero-dose 402/395/336): 532/550
Rev/plate (Salmonella TA104; TA104 +S9, Test 3, 20 µg/plate, zero-dose 402/395/336): 533/627
Mutagenic potency, Revertants/µg ± S.E., TA104 (Salmonella TA104): 24.9 ± 8.3 rev/µg
Rev/plate (Salmonella TA100; [1]): 280 rev/plate
Rev/plate (Salmonella TA100; [2]): 461 rev/plate
Rev/plate (Salmonella TA100; [3]): 580 rev/plate
Rev/plate (Salmonella TA100; [4]): 1052 rev/plate
Rev/plate (Salmonella TA100; [5]): 1172 rev/plate
Rev/plate (Salmonella TA100; [6]): 1286 rev/plate
Rev/plate (Salmonella TA100; TA100 +S9, Test 2, 2 µg/plate, zero-dose 84/78/80): 224/217
Rev/plate (Salmonella TA100; TA100 +S9, Test 2, 5 µg/plate, zero-dose 84/78/80): 369/364
Rev/plate (Salmonella TA100; TA100 +S9, Test 2, 10 µg/plate, zero-dose 84/78/80): 746/565
Rev/plate (Salmonella TA100; TA100 +S9, Test 2, 20 µg/plate, zero-dose 84/78/80): 593/607
Rev/plate (Salmonella TA100; TA100 +S9, Test 3, 2 µg/plate, zero-dose 127/118/125): 305/298
Rev/plate (Salmonella TA100; TA100 +S9, Test 3, 5 µg/plate, zero-dose 127/118/125): 573/564
Rev/plate (Salmonella TA100; TA100 +S9, Test 3, 10 µg/plate, zero-dose 127/118/125): 862/714
Rev/plate (Salmonella TA100; TA100 +S9, Test 3, 20 µg/plate, zero-dose 127/118/125): 1142/1113
Mutagenic potency, Revertants/µg ± S.E., TA100 (Salmonella TA100): 59.8 ± 6.1 rev/µg
Mutagenicity call TA100 (Salmonella TA100): (+) (Called mutagenic (+) based on showing reproducible, dose-related increases in rev/plate that reached or exceeded 2-fold relative to zero-dose controls)
Rev/plate (Salmonella TA98; [7]): 45 rev/plate
Rev/plate (Salmonella TA98; [8]): 47 rev/plate
Rev/plate (Salmonella TA98; [9]): 61 rev/plate
Rev/plate (Salmonella TA98; [10]): 62 rev/plate
Rev/plate (Salmonella TA98; [11]): 107 rev/plate
Rev/plate (Salmonella TA98; [12]): 130 rev/plate
Rev/plate (Salmonella TA98; [13]): 64/63
Rev/plate (Salmonella TA98; [14]): 72/84
Rev/plate (Salmonella TA98; [15]): 146/141
Rev/plate (Salmonella TA98; TA98 +S9, Test 2, 150 µg/plate, zero-dose 43/41/30): 207/190
Rev/plate (Salmonella TA98; [16]): 90/111
Rev/plate (Salmonella TA98; [17]): 132/132
Rev/plate (Salmonella TA98; TA98 +S9, Test 3, 80 µg/plate, zero-dose 49/50/50): 181/199
Rev/plate (Salmonella TA98; TA98 +S9, Test 3, 150 µg/plate, zero-dose 49/50/50): 241/222
Mutagenic potency, Revertants/µg ± S.E., TA98 (Salmonella TA98; plate-incorporation, +S9): 1.4 ± 0.2 rev/µg
Mutagenicity call TA98 (Salmonella TA98; plate-incorporation, +S9): (+) (Called mutagenic (+) based on showing reproducible, dose-related increases in rev/plate that reached or exceeded 2-fold relative to zero-dose controls)

Nc1ccc2cc3ccccc3cc2c1 [2-aminoanthracene, reference compound]
Rev/plate (Salmonella TA104; TA104 +S9, Test 1, 0.1 µg/plate, zero-dose 379/400/370): 469/478
Rev/plate (Salmonella TA104; TA104 +S9, Test 1, 0.25 µg/plate, zero-dose 379/400/370): 650/632
Rev/plate (Salmonella TA104; TA104 +S9, Test 1, 0.5 µg/plate, zero-dose 379/400/370): 849/818
Rev/plate (Salmonella TA104; TA104 +S9, Test 1, 1 µg/plate, zero-dose 379/400/370): 1004/998
Rev/plate (Salmonella TA104; TA104 +S9, Test 1, 2 µg/plate, zero-dose 379/400/370): 1335/1432
Rev/plate (Salmonella TA104; TA104 +S9, Test 2, 0.1 µg/plate, zero-dose 276/260/270): 366/337
Rev/plate (Salmonella TA104; TA104 +S9, Test 2, 0.25 µg/plate, zero-dose 276/260/270): 521/530
Rev/plate (Salmonella TA104; TA104 +S9, Test 2, 0.5 µg/plate, zero-dose 276/260/270): 764/666
Rev/plate (Salmonella TA104; TA104 +S9, Test 2, 1 µg/plate, zero-dose 276/260/270): 983/956
Rev/plate (Salmonella TA104; [18]): 1321/1392
Rev/plate (Salmonella TA104; TA104 +S9, Test 3, 0.1 µg/plate, zero-dose 402/395/336): 444/419
Rev/plate (Salmonella TA104; TA104 +S9, Test 3, 0.25 µg/plate, zero-dose 402/395/336): 570/588
Rev/plate (Salmonella TA104; TA104 +S9, Test 3, 0.5 µg/plate, zero-dose 402/395/336): 822/811
Rev/plate (Salmonella TA104; TA104 +S9, Test 3, 1 µg/plate, zero-dose 402/395/336): 1079/1097
Rev/plate (Salmonella TA104; [19]): 1434/1518
Rev/plate (Salmonella TA104; TA104 +S9, Test 4, 0.1 µg/plate, zero-dose 482/455/462): 573/564
Rev/plate (Salmonella TA104; TA104 +S9, Test 4, 0.25 µg/plate, zero-dose 482/455/462): 699/711
Rev/plate (Salmonella TA104; TA104 +S9, Test 4, 0.5 µg/plate, zero-dose 482/455/462): 864/989
Rev/plate (Salmonella TA104; TA104 +S9, Test 4, 1 µg/plate, zero-dose 482/455/462): 1185/1181
